Tests used:
Format in all cases: cell-based, human
[1] = system: Caco2 cells; assay: Glucose uptake assay; design: key to * (regulatory effect on glucose uptake): ↑: the arrows that point up represent the enhancing effect on the glucose uptake; conditions: for Regulatory effects on the glucose uptake of the Caco2 cells: Table 2 summary; for Uptake rate (glucose): 48 hours, 25 mM glucose
Procedure: (§1) To evaluate the effect of the isolated astragaloside compound on the uptake of nutrient substances across the intestinal lumen, Caco-2 cells were grown on permeable filter as an experimental model. Caco2 cells originate from human colonic adenocarcinoma and spontaneously differentiate into an enterocyte-like phenotype after two weeks. The Caco-2 cell line, derived from a human colorectal carcinoma, has been used as an in vitro model system for studying drug absorption in gastrointestinal tract. These cells form monolayers with well-developed tight-junctions, and have been evaluated in details as an in vitro model to study both transcellular transport of nutrients and drugs in intestinal lumen.
(§2) Caco-2 cells were obtained from the ATCC (American Type Culture Collection). The cells were maintained in Dulbecco's modified Eagle medium (DMEM) containing 4.5 g/L glucose and 25 mM Hepes, supplemented with 10% fetal calf serum, 100 U/mL penicillin G and […]. The medium was changed every second day. The cells were routinely checked for Mycoplasma in monthly intervals. Caco-2 cells were cultured on semi-permeable membranes to differentiate into a highly functionalized epithelial barrier with remarkable morphological and biochemical similarity to the small intestinal columnar epithelium. The Caco-2 cell monolayers could therefore be used to study the membrane transport properties of many compounds. To trypsinize the cells, the culture dish was washed once with phosphate-buffered saline (PBS) followed by adding trypsine-EDTA for 10 minutes. The trypsinized cells were separated and filtered into single cells using a 35-μm strainer cap (Falcon 2235) before being seeded for further experiments.
(§3) Caco-2 cells (5×10^4) were seeded in a 48-well plate and maintained in culture medium (DMEM with 10% FBS, 1% nonessential amino acids, L-glutamine, penicillin G (100 U/mL), streptomycin (10 μg/mL), and amphotericin B (2.5 μg/mL) in a 37° C. incubator for 10 days for the cells to differentiate. The culture medium was changed once every two days. The cells were then washed with PBS before replenishing with the culture medium containing 5% FBS and various astragalosides at the indicated concentrations (0.01, 0.1 and 1 μM) for 48 hours. The Caco2 cells were washed out of remaining glucose with PBS and replaced in the glucose buffer (80 mM NaCl, 100 mM mannitol, 20 mM Tris-HCl, pH 7.4, 3 mM K2HPO4, 1 mM CaCl2, 1 mg/mL BSA) for 1 hour. Glucose uptake was initiated by replacing the glucose buffer with 0.2 ml of glucose buffer containing 2 μCi/mL of ^14C-glucose and unlabeled cold glucose to give a final glucose concentration of 25 mM. Glucose uptake was stopped by removing the glucose buffer and washing with PBS at designated time intervals. The cells were lysed in 0.2 mL of 0.2 N NaOH, and 20 μL of the cell lysate were transferred to the filter-bottomed UniFilter plates (Perkin-Elmer, Wellesley, Mass., USA) and dried in a vacuum oven at 37° C. The bottom of the UniFilter plate was sealed and 25 μL of the counting solution were added into each well. Adhesive plate sealers were used in place of the lids and radioactivity of each sample was counted using the microplate liquid scintillation counter (TopCount, Packard NXT, Packard BioScience Company, Meriden, Conn., USA). The amount of glucose accumulated in the cells was calculated and normalized to protein concentration, and uptake rate was expressed as nanomoles of glucose per minutes per milligram of cell protein (nmol/min/mg). Protein concentration was determined by a standard Bicinchoninic acid (BCA) protein assay. Nonspecific glucose uptake was measured by adding 2 μCi of L-[^14C]-glucose and subtracting from each determination to obtain specific glucose uptake.

[2] = system: Caco2 cells; assay: Folate uptake assay; design: key to * (regulatory effect on folate uptake): ↑: the arrows that point up represent the enhancing effect on folate uptake; conditions: compound 0.1 μM; for Uptake rate (folate): 2 days, 5 μM folate, pH 6.0
Procedure: as §1, §2, §3
The Caco2 cells were subjected to folate uptake test in a manner similar to that described in the glucose uptake assay in Example 1 above. […]

[3] = system: Caco-2 cell monolayer; assay: Tryptophan absorption assay (transport across Caco-2 cell monolayer); design: key to * (regulatory effect on tryptophan transport): ↑: the arrows that point up represent the enhancing effect on the tryptophan transport; conditions: for Regulatory effects on the tryptophan transport across the Caco2 cell monolayer: Table 4 summary; for Tryptophan transport rate: concentration from 0.01 μM to 1 mM
Procedure: as §1, §2
(§4) In measuring transport of arginine across the Caco-2 cell monolayer, both sides of the transwells were washed with arginine incubation buffer consisting of: 137 mM NaCl, 10 mM Hepes, 0.3 mM NaH2PO4, 0.3 mM K2HPO4, 5.4 mM KCl, 2.8 mM CaCl2, 1 mM MgSO4, 10 mM glucose, adjusted to pH 7.4. Then, the cell layer was preincubated in the incubation buffer at 37° C. for 1 h. The volume of incubation buffer was 0.2 mL and 0.9 mL in the apical and basolateral chambers, respectively. The cells were replaced with fresh incubation medium in both chambers prior to the transport experiment. The transport experiment was initiated by replacing the incubation solution on the apical side with solution containing 10 mM of L-arginine in which 0.125 μCi/mL of L-[^3H]-arginine was included. At designated time intervals, 10 μL-solution samples were removed from the basolateral side and radioactivity of each sample was counted using a microplate liquid scintillation counter (TopCount, Packard NXT). During the experiment, when a 10 μL-solution sample was removed from the basolateral side every time, 10 μL buffer was supplemented to keep the volume constant. The uptake of [^3H]-mannitol was used to correct for nonspecific transport of molecules across the monolayer membrane. Results were expressed as the nanomoles of arginine transport across the Caco-2 cell monolayers with respect to time in minutes (nmol/min).
The experimental procedures similar to those in Example 2 were used for measuring the uptake of tryptophan molecules across the Caco-2 membrane, except using a tryptophan incubation buffer consisting of 137 mM choline chloride, 10 mM Hepes, 0.6 mM KH2PO4, 5.4 mM KCl, 2.8 mM CaCl2, 1 mM MgSO4, and 10 mM glucose, and having its pH adjusted to 7.4. Results were expressed as the nanomoles of tryptophan transport across the Caco-2 cell monolayers with respect to time in minutes (nmol/min).

[4] = system: Caco-2 cell monolayer; assay: Arginine absorption assay (transport across Caco-2 cell monolayer); design: key to * (regulatory effect on arginine transport): ↑: the arrows that point up represent the enhancing effect on the arginine transport; conditions: for Regulatory effects on the arginine transport across the Caco2 cell monolayer: Table 3 summary; for Transport rate (arginine): 10 mM L-arginine apical; for Arginine transport rate: concentration from 0.01 μM to 1 μM
Procedure: as §1, §2, §4

Compound	Regulatory effects on the glucose uptake of the Caco2 cells [1]	* (regulatory effect on glucose uptake) ([1]; compound 0.01 μM)	Percentage (glucose uptake, control = 100) ([1]; compound 0.01 μM)	Uptake rate (glucose) ([1]; compound 0.01 μM)	* (regulatory effect on glucose uptake) ([1]; compound 0.1 μM)	Percentage (glucose uptake, control = 100) ([1]; compound 0.1 μM)	Uptake rate (glucose) ([1]; compound 0.1 μM)	* (regulatory effect on glucose uptake) ([1]; compound 1 μM)	Percentage (glucose uptake, control = 100) ([1]; compound 1 μM)	Uptake rate (glucose) ([1]; compound 1 μM)	* (regulatory effect on folate uptake) [2]	Percentage (folate uptake vs own control) [2]	Uptake rate (folate) [2]	Regulatory effects on the tryptophan transport across the Caco2 cell monolayer [3]	* (regulatory effect on tryptophan transport) ([3]; compound 0.01 μM)	Percentage (tryptophan transport, control = 100) ([3]; compound 0.01 μM)	Transport rate (tryptophan) ([3]; compound 0.01 μM)	* (regulatory effect on tryptophan transport) ([3]; compound 0.1 μM)	Percentage (tryptophan transport, control = 100) ([3]; compound 0.1 μM)	Transport rate (tryptophan) ([3]; compound 0.1 μM)	other results
CC(C)(O)[C@@H]1CC[C@](C)([C@H]2[C@@H](O)C[C@@]3(C)[C@@H]4C[C@H](O[C@@H]5O[C@H](CO)[C@@H](O)[C@H](O)[C@H]5O)[C@H]5C(C)(C)[C@@H](O[C@@H]6OC[C@@H](O)[C@H](O)[C@H]6O)CC[C@@]56C[C@@]46CC[C@]23C)O1 [AS4, astragaloside IV]	had regulatory effects on the glucose uptake	↑	183.15%	11.670 ± 2.5800 nmol/mg/min	↑	164.16%	10.460 ± 2.6690 nmol/mg/min	↑	141.27%	9.0020 ± 1.8300 nmol/mg/min	↑	135.12%	75.710 ± 5.2390 pmol/mg/min	had regulatory effects on the tryptophan transport	↑	113.29%	10.130 ± 0.7025 nmol/min	↑	142.36%	12.730 ± 0.4470 nmol/min	Glucose uptake rate versus control group ([1]; FIG. 1, selected concentrations): much higher glucose uptake rate than the control group; * (regulatory effect on tryptophan transport) ([3]; compound 1 μM): ↑; Percentage (tryptophan transport, control = 100) ([3]; compound 1 μM): 108.07%; Transport rate (tryptophan) ([3]; compound 1 μM): 9.6640 ± 0.2770 nmol/min; Tryptophan transport rate [3]: increased; Regulatory effects on the arginine transport across the Caco2 cell monolayer [4]: had regulatory effects on the arginine transport; * (regulatory effect on arginine transport) ([4]; compound 0.01 μM): ↑; Percentage (arginine transport, control = 100) ([4]; compound 0.01 μM): 156.52%; Transport rate (arginine) ([4]; compound 0.01 μM): 16.7245 ± 0.2890 nmol/min; * (regulatory effect on arginine transport) ([4]; compound 0.1 μM): ↑; Percentage (arginine transport, control = 100) ([4]; compound 0.1 μM): 172.73%; Transport rate (arginine) ([4]; compound 0.1 μM): 18.4575 ± 0.5955 nmol/min; * (regulatory effect on arginine transport) ([4]; compound 1 μM): ↑; Percentage (arginine transport, control = 100) ([4]; compound 1 μM): 161.19%; Transport rate (arginine) ([4]; compound 1 μM): 17.2241 ± 0.3759 nmol/min; Arginine transport rate [4]: increased
CC(C)(O)[C@@H]1CC[C@](C)([C@H]2[C@@H](O)C[C@@]3(C)[C@@H]4C[C@H](O[C@@H]5O[C@H](CO)[C@@H](O)[C@H](O)[C@H]5O)[C@H]5C(C)(C)[C@@H](O[C@@H]6OC[C@@H](O)[C@H](O)[C@H]6O[C@@H]6O[C@H](CO)[C@@H](O)[C@H](O)[C@H]6O)CC[C@@]56C[C@@]46CC[C@]23C)O1 [AS6, astragaloside VI]	had regulatory effects on the glucose uptake	↑	119.84%	7.6360 ± 1.7330 nmol/mg/min	↑	109.97%	7.0070 ± 1.9470 nmol/mg/min	↑	122.49%	7.8050 ± 1.1830 nmol/mg/min	↑	140.37%	84.560 ± 4.7200 pmol/mg/min	had regulatory effects on the tryptophan transport	↑	173.45%	15.510 ± 0.3688 nmol/min	↑	151.87%	13.850 ± 0.6567 nmol/min	* (regulatory effect on tryptophan transport) ([3]; compound 1 μM): ↑; Percentage (tryptophan transport, control = 100) ([3]; compound 1 μM): 173.23%; Transport rate (tryptophan) ([3]; compound 1 μM): 15.490 ± 0.2161 nmol/min; Tryptophan transport rate [3]: increased; Regulatory effects on the arginine transport across the Caco2 cell monolayer [4]: had regulatory effects on the arginine transport; * (regulatory effect on arginine transport) ([4]; compound 0.01 μM): ↑; Percentage (arginine transport, control = 100) ([4]; compound 0.01 μM): 130.35%; Transport rate (arginine) ([4]; compound 0.01 μM): 13.9283 ± 1.7330 nmol/min; * (regulatory effect on arginine transport) ([4]; compound 0.1 μM): ↑; Percentage (arginine transport, control = 100) ([4]; compound 0.1 μM): 140.36%; Transport rate (arginine) ([4]; compound 0.1 μM): 14.9986 ± 1.3200 nmol/min; * (regulatory effect on arginine transport) ([4]; compound 1 μM): ↑; Percentage (arginine transport, control = 100) ([4]; compound 1 μM): 127.22%; Transport rate (arginine) ([4]; compound 1 μM): 13.5942 ± 1.2760 nmol/min; Arginine transport rate [4]: increased
